# Patent publication US12247004B2, “2-amino-N-(amino-oxo-aryl-lambda6-sulfanylidene)acetamide compounds and their therapeutic use” (Oxford Drug Design Limited, priority 2019, dated 2025)
# Where two headings read alike, the source gives them in different places.
# Legend:
# [1] = target: Leucyl-tRNA synthetase (LeuRS) (Escherichia coli (strain K12), UniProt P07813); experiment: Leucyl-tRNA synthetase enzyme inhibition (AMP-Glo; single point % inhibition at 100 μM and IC50); format: biochemical
# Text: Study 1—Enzyme Inhibition
# The aminoacylation reaction catalyzed by aminoacyl-tRNA synthetases (aaRS) takes place in two steps. In the first step, aaRS activates its cognate amino acid with ATP; and in the second step the activated amino acid is loaded to its corresponding tRNA. This reaction can be summarized as follows: aaRS+aa+ATP=aaRS-aa-AMP+PPi aaRS-aa-AMP+tRNA=aa-tRNA+AMP+aaRS
# wherein: aaRS, aminoacyl-tRNA synthetase; aa, amino acid; aaRS-aa-AMP, enzyme-bound to aminoacyl-adenylate; AMP, adenosine monophosphate; aa-tRNA, aminoacyl-tRNA, PPi, inorganic pyrophosphate.
# a. Single Point Percentage Inhibition
# The activity of the pathogenic aaRSs was monitored by measuring AMP production using the commercial kit AMP-Glo (Promega, Madison, USA).
# Ligand stock solutions were prepared in 100% DMSO at 10 mM concentration. An assay buffer consisting of 100 mM Tris HCl pH 7.6, 40 mM MgCl, 20 mM KCl and 150 mM NaCl was prepared in dH2O.
# Using the same enzymatic assay in a 384-well plate format, ten point concentration response curves were generated for each compound using a top concentration of 10 μM. The known inhibitor LeuAMS was used as a positive control for the LeuRS assay. 100% DMSO was used as a negative control. The IC50 was calculated based on non-linear regression analysis.
# [2] = Human cell viability / cytotoxicity (CellTiter-Glo, 24 hours); format: cell-based; settings: human, HepG2 cells (ATCC HB-8065); HepG2 ATCC HB-8065, 24 hours; read-out: Cytotoxicity in HepG2 ATCC HB-8065 Cell Line, IC50
# Procedure: Study 3—Human Cell Viability
# Compounds were assessed for potential non-specific cytotoxic effects against a human hepatic cell line (HepG2 ATCC HB-8065). 96-well plates were seeded with HepG2 cells in concentration of 15,000 cells per well in 100 μL of MEM growth media completed with 1% NEAA and 1% sodium pyruvate. Border wells were filled with 100 μL of sterile PBS. Two days upon cells incubation, the compounds were added. Compound dilutions were prepared in 96-well V-bottom plate in pure DMSO. Growth media from 5 plates were aspirated and replaced with 98.7 μL of fresh growth media. 1.28 μL of compounds prepared in V-bottom plates were transferred with multichannel pipette into test plates (78.1× dilution). Final DMSO concentration was 1.28% per well. In control wells, 1.28 μL of DMSO was added in 98.7 μL of media. Compounds were tested in duplicates. Cells were incubated with compounds for 24 hours when cell viability was assessed by measuring ATP levels. ATP levels were measured by adding 50 μL of CellTiter-Glo reagent to each well and after 5 minutes of incubation luminescence was measured with SpectraMax i3. The potential effect of tested compounds on cell viability was determined by comparing the signal obtained in presence of different concentrations of the compounds with those obtained in the presence of DMSO only. The potential effects were then calculated and presented as IC50 values (μg/mL).
# [3] = system: bacteria (ATCC reference strains); experiment: Antibacterial activity, MIC by broth micro-dilution (CLSI)
# [4] = E. coli LeuRS, read-out: Enzyme Inhibition - IC50, E. coli LeuRS
# [5] = Escherichia coli, BAA2469, read-out: Antibacterial Activity (MIC), G = E. coli BAA-2469
# [6] = Klebsiella pneumoniae, ATCC700603, read-out: Antibacterial Activity (MIC), C = K. pneumoniae ATCC 700603
# [7] = Escherichia coli, ATCC25922, read-out: Antibacterial Activity (MIC), A = E. coli ATCC 25922
# Sequence of Leucyl-tRNA synthetase (LeuRS) (P07813 whole entry, looked up): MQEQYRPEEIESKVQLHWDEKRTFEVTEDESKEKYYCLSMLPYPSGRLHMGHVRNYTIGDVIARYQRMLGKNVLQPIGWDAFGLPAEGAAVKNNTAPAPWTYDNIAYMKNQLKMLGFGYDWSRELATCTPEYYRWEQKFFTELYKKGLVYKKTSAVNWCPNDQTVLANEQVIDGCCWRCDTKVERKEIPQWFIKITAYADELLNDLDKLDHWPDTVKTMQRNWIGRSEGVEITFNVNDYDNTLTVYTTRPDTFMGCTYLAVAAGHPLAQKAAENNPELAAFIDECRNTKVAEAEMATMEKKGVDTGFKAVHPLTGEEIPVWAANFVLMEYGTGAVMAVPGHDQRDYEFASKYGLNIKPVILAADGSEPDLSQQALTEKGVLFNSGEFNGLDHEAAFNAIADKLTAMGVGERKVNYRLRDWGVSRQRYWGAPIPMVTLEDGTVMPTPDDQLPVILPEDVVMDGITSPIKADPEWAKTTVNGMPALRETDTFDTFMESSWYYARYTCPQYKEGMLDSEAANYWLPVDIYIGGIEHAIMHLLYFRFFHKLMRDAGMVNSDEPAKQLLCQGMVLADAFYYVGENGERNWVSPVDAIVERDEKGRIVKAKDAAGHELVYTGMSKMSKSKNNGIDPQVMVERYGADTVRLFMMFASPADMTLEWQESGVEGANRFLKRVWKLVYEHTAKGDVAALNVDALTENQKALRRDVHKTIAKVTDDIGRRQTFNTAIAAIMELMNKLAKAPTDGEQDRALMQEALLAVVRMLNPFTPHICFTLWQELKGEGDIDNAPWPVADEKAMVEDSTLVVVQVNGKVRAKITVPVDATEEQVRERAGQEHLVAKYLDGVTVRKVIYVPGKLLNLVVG
SMILES,IC50 [1] [nM],IC50 at 24 h [2] [µg/mL],"IC50 [1, 4] [nM]",also measured
Cc1ccc([S@@](N)(=O)=NC(=O)[C@@H](N)CC(C)C)cc1 [ANASIA-021-1],2060,> 64,,
COc1ccc([S@@](N)(=O)=NC(=O)[C@@H](N)CC(C)C)cc1C [ANASIA-022-1],6570,> 64,,
CC(C)C[C@H](N)C(=O)N=S(N)(=O)c1cc2ccccc2s1 (stereo partly shown) [ANASIA-023],1290,> 64,,
CC(C)C[C@H](N)C(=O)N=[S@@](N)(=O)c1cc(F)ccc1F [ANASIA-024-2],,> 64,6280,
CC(C)C[C@H](N)C(=O)N=[S@](N)(=O)c1c(F)cccc1F [ANASIA-026-1],564,> 64,,
CC(C)C[C@H](N)C(=O)N=[S@@](N)(=O)c1c(F)cccc1F [ANASIA-026-2],,> 64,4420,
Cc1cc(F)ccc1[S@@](N)(=O)=NC(=O)[C@@H](N)CC(C)C [ANASIA-027-1],4530,> 64,,
CC[C@H](C)[C@H](N)C(=O)N=S(N)(=O)c1ccc2ccccc2c1 (stereo partly shown) [ANASIA-030],,> 64,,
Cc1cnc(S(N)(=O)=NC(=O)[C@@H](N)CC(C)C)s1 (stereo partly shown) [ANASIA-039],,> 64,8830,
CC(C)C[C@H](N)C(=O)N=[S@](N)(=O)c1ccc(Cl)cc1 [ANASIA-040-1],2540,> 64,,
CC(C)C[C@H](N)C(=O)N=[S@@](N)(=O)c1cccc(C#N)c1 [ANASIA-041-2],,> 64,832,
CC(C)C[C@H](N)C(=O)N=[S@](N)(=O)c1ccc(Cl)c(Cl)c1 [ANASIA-042-1],1110,> 64,,
CC(C)C[C@H](N)C(=O)N=[S@@](N)(=O)c1ccc(Cl)c(Cl)c1 [ANASIA-042-2],,> 64,7920,
CC(C)C[C@H](N)C(=O)N=[S@@](N)(=O)c1cccc(C(C)C)c1 [ANASIA-043-2],,> 64,735,
CC(C)C[C@H](N)C(=O)N=[S@@](N)(=O)c1cccc(Cl)c1Cl [ANASIA-046-2],2570,> 64,,
CC(C)C[C@H](N)C(=O)N=[S@@](N)(=O)c1cccc(Oc2ccc(Cl)cc2)c1 [ANASIA-047-2],,45.3,1290,
CC(C)C[C@H](N)C(=O)N=[S@](N)(=O)c1cccc(C(C)(C)C)c1 [ANASIA-049-1],296,> 64,,
CC(C)C[C@H](N)C(=O)N=[S@](N)(=O)c1csc(Cl)c1Cl.Cl [ANASIA-125-1],304,,,"MIC [3, 5]: 64 µg/mL; MIC [3, 6]: > 256 µg/mL"
CC(C)C[C@H](N)C(=O)N=[S@](N)(=O)c1ccsc1C(F)F.Cl [ANASIA-126-1],208,,,"MIC ([3]; Acinetobacter baumannii, read-out: Antibacterial Activity (MIC), E = A. baumannii B1931): > 64 µg/mL; MIC ([3]; Enterobacter cloacae, read-out: Antibacterial Activity (MIC), B = Enterobacter cloacae B1966): > 64 µg/mL; MIC [3, 7]: 5.66 µg/mL; MIC [3, 5]: 32 µg/mL; MIC [3, 6]: 256 µg/mL; MIC ([3]; Pseudomonas aeruginosa, ATCC27853, read-out: Antibacterial Activity (MIC), D = P. aeruginosa ATCC 27853): > 64 µg/mL"
Cc1nc([S@@](N)(=O)=NC(=O)[C@@H](N)CC(C)C)cs1.Cl [ANASIA-129-1],319,,,"MIC [3, 5]: 64 µg/mL; MIC [3, 6]: 128 µg/mL"
CC(C)C[C@H](N)C(=O)N=[S@](N)(=O)c1csc2cccnc12.Cl [ANASIA-131-1],530,,,"MIC [3, 7]: 32 µg/mL; MIC [3, 5]: > 64 µg/mL; MIC [3, 6]: 256 µg/mL"
"CCc1csc([S@@](N)(=O)=NC(=O)[C@@H](N)CC(C)C)c1 [ANASIA-133-1, (S)-2-amino-N—((S)-amino(4-ethylthiophen-2-yl)(oxo)-λ6-sulfanylidene)-4-methylpentanamide]",97.3,,,"MIC [3, 5]: 8 µg/mL; MIC [3, 6]: 128 µg/mL"
CC(C)C[C@H](N)C(=O)N=[S@@](N)(=O)c1csc(C#N)c1.Cl [ANASIA-135-2],,,262,"MIC [3, 7]: 8 µg/mL; MIC [3, 5]: 64 µg/mL; MIC [3, 6]: > 256 µg/mL"
CC(C)C[C@H](N)C(=O)N=[S@](N)(=O)c1cc(C#N)cs1.Cl [ANASIA-136-1],71.8,,,"MIC [3, 7]: 8 µg/mL; MIC [3, 5]: > 64 µg/mL; MIC [3, 6]: > 256 µg/mL"
